Measurements as given in US11292802B2, “Substituted tetrahydropyrrolo[1,2-a]pyrazines as alpha v integrin inhibitors” (BRISTOL-MYERS SQUIBB COMPANY, priority 2017, dated 2022).

These compounds were tested against T1, human αVβ6 (Homo sapiens, UniProt P06756+P18564) (assay: human αVβ6 HTRF binding assay). Conditions: biotinylated recombinant human αVβ6 integrin 1.25 nM, FITC-conjugated fibronectin 5 nM.
T1 construct: purchased R & D systems 3817-AV
Procedure: All binding assays used the HTRF (homogeneous time resolved fluorescence) technology from Cisbio International, therefore all assays are described as HTRF binding assays. The assay results for the Examples are listed in Table 1, exemplified by human αVβ6 (?). The HTRF binding assays are established for the following integrins: human αVβ6, human αVβ1, human αVβ3, human αVβ5, and human αVβ8. All assays used the following assay buffer: 20 mM Tris, pH 7.4, 1 mM MgCl2, 1 mM MnCl2, 0.01% Tween 20, and 0.01% BSA. Alternatively, a SPA-based assay was used for evaluation of receptor binding.
[…]

T1 sequence (P06756 31-992 limits assumed): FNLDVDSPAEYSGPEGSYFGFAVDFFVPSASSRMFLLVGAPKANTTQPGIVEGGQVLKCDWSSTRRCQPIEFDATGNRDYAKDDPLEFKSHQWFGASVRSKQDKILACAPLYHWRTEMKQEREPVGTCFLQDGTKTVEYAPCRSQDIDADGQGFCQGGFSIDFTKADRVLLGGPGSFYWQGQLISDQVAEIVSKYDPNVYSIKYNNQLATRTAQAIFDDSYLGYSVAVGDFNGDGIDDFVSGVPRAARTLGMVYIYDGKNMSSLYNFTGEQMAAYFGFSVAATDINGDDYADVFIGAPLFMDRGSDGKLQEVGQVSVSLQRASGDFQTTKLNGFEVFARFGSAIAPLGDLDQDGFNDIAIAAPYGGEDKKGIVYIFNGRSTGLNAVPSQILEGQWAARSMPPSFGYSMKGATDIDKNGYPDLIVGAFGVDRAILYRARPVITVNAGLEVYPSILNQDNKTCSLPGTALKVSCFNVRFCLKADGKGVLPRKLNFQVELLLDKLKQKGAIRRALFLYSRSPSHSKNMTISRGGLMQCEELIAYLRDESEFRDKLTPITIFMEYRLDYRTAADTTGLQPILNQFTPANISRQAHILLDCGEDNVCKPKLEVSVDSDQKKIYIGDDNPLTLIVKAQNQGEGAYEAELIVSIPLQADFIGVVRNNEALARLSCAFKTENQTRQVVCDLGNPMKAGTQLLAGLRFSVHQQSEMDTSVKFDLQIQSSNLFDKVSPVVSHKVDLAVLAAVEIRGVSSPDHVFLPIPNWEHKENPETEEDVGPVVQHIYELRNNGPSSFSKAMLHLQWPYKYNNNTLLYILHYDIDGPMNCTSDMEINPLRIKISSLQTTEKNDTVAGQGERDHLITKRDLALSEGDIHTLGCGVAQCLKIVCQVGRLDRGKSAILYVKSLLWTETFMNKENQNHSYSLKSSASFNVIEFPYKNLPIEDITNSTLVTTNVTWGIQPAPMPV
T1 sequence (P18564 22-707 limits assumed): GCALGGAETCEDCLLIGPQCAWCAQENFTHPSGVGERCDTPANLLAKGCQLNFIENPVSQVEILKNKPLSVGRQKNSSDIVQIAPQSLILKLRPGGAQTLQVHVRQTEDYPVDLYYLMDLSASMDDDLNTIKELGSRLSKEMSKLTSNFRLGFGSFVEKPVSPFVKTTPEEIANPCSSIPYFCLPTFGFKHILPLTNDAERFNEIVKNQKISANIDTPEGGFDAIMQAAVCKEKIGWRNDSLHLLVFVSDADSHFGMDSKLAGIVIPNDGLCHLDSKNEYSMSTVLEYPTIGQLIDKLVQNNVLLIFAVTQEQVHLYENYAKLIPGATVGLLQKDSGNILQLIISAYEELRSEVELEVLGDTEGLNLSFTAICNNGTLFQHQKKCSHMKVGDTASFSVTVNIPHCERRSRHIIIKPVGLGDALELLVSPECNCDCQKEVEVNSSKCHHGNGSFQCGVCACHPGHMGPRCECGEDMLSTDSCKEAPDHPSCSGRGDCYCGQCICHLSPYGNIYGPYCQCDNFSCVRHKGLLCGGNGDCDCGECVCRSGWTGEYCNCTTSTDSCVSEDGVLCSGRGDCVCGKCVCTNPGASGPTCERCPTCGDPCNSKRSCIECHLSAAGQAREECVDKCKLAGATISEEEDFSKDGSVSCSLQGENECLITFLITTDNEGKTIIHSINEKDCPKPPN

| Compound | IC50 [nM] |
| --- | --- |
| Cc1ncc(C(CC(=O)O)N2CCn3cc(CCc4ccc5c(n4)NCCC5)cc3C2=O)cn1 (stereo not shown) [Example 13] | 7.2 |
| O=C(O)C[C@@H](c1cc(Cl)cc(Cl)c1)N1CCn2cc(CCc3ccc4c(n3)NCCC4)cc2C1=O [Example 6] | 0.98 |
| O=C(O)C[C@@H](c1ccc2c(c1)OCC2)N1CCn2cc(CCc3ccc4c(n3)NCCC4)cc2C1=O [Example 17] | 2.6 |
| Cc1cc(C)c(S(=O)(=O)N[C@@H](CN2CCn3cc(CCc4ccc5c(n4)NCCC5)cc3C2=O)C(=O)O)c(C)c1 [Example 8] | 25 |
| COc1ccc([C@H](CC(=O)O)N2CCn3cc(CCC4CCc5cccnc5N4)cc3C2=O)cn1 (single isomer, unassigned) [Example 11] | 2.3 |
| COc1ncc([C@H](CC(=O)O)N2CCn3cc(CCCc4ccc5c(n4)NCCC5)cc3C2=O)cn1 [Example 20] | 3.4 |
| COc1ccc([C@H](CC(=O)O)N2CCn3cc(C(Cc4ccc5c(n4)NCCC5)Cc4ccc5c(n4)NCCC5)cc3C2=O)cc1F [Example 10] | 1.3 |
| O=C(O)C[C@@H](c1cnc2ccccc2c1)N1CCn2cc(CCCc3ccc4c(n3)NCCC4)cc2C1=O [Example 19] | 6.5 |
| COc1ccc([C@H](CC(=O)O)N2CCn3cc(CCc4ccc5c(n4)NCCC5)cc3C2=O)cc1F [Example 1, (S)-3-(3-Fluoro-4-methoxyphenyl)-3-(1-oxo-7-(2-(5,6,7,8-tetrahydro-1,8-naphthyridin-2-yl)ethyl)-3,4-dihydropyrrolo[1,2-a]pyrazin-2(1H)-yl)propanoic acid] | 3.2 |
| CC(C)(C)c1cc(Br)cc([C@H](CC(=O)O)N2CCn3cc(CCc4ccc5c(n4)NCCC5)cc3C2=O)c1 [Example 5] | 0.59 |
| CC(C)COc1ccc([C@H](CC(=O)O)N2CCn3cc(CCc4ccc5c(n4)NCCC5)cc3C2=O)cn1 [Example 22, (S)-3-(6-Isobutoxypyridin-3-yl)-3-(1-oxo-7-(2-(5,6,7,8-tetrahydro-1,8-naphthyridin-2-yl)ethyl)-3,4-dihydropyrrolo[1,2-a]pyrazin-2(1H)-yl)propanoic acid] | 1.6 |
| COc1ccc([C@H](CC(=O)O)N2CCn3cc(CCC4CCc5cccnc5N4)cc3C2=O)cc1F (mixture of isomers) [Example 2, (3S)-3-(3-Fluoro-4-methoxyphenyl)-3-(1-oxo-7-(2-(1,2,3,4-tetrahydro-1,8-naphthyridin-2-yl)ethyl)-3,4-dihydropyrrolo[1,2-a]pyrazin-2(1H)-yl)propanoic acid] | 0.51 |
| (S)-3-(3-Fluoro-4-methoxyphenyl)-3-(1-oxo-7-(4-(5,6,7,8-tetrahydro-1,8-naphthyridin-2-yl)butyl)-3,4-dihydropyrrolo[1,2-a]pyrazin-2(1H)-yl)propanoic acid, TFA [Example 32] | 410 |
| O=C(O)CC(c1cnc2ccccc2n1)N1CCn2cc(CCc3ccc4c(n3)NCCC4)cc2C1=O (stereo not shown) [Example 18] | 140 |
| COc1ccc([C@H](CC(=O)O)N2CCn3cc(CCc4ccc5c(n4)NCCC5)cc3C2=O)cn1 [Example 3, (S)-3-(6-Methoxypyridin-3-yl)-3-(1-oxo-7-(2-(5,6,7,8-tetrahydro-1,8-naphthyridin-2-yl)ethyl)-3,4-dihydropyrrolo[1,2-a]pyrazin-2(1H)-yl)propanoic acid] | 2.4 |
| COc1ccc([C@H](CC(=O)O)N2CCn3cc(CCC4CCc5cccnc5N4)cc3C2=O)cn1 (mixture of isomers) [Example 9] | 0.6 |
| COc1ccc([C@H](CC(=O)O)N2CCn3c(cc(CCc4ccc5c(n4)NCCC5)c3C)C2=O)cc1F [Example 7] | 69 |
| COc1ccc([C@@H](CC(=O)O)N2CCn3cc(CCc4ccc5c(n4)NCCC5)cc3C2=O)cc1F [Example 4] | 80 |
| COc1ccc([C@H](CC(=O)O)N2CCn3cc(CCC4CCc5cccnc5N4)cc3C2=O)cn1 (single isomer, unassigned) [Example 12] | 3.2 |
| O=C(O)CC(c1cncnc1)N1CCn2cc(CCc3ccc4c(n3)NCCC4)cc2C1=O (stereo not shown) [Example 15] | 23 |
| O=C(O)C[C@@H](c1cnc2ccccc2c1)N1CCn2cc(CCc3ccc4c(n3)NCCC4)cc2C1=O [Example 16] | 1.8 |

Other lines, results leading:

| IC50 [nM] | Compound |
| --- | --- |
| 4.6 | O=C(N[C@@H](CN1CCn2cc(CCc3ccc4c(n3)NCCC4)cc2C1=O)C(=O)O)OCc1ccccc1 [Example 25, (S)-2-(((Benzyloxy)carbonyl)amino)-3-(1-oxo-7-(2-(5,6,7,8-tetrahydro-1,8-naphthyridin-2-yl)ethyl)-3,4-dihydropyrrolo[1,2-a]pyrazin-2(1H)-yl)propanoic acid] |
| 1.6 | CCOc1ccc([C@H](CC(=O)O)N2CCn3cc(CCc4ccc5c(n4)NCCC5)cc3C2=O)cn1 [Example 23, (S)-3-(6-Ethoxypyridin-3-yl)-3-(1-oxo-7-(2-(5,6,7,8-tetrahydro-1,8-naphthyridin-2-yl)ethyl)-3,4-dihydropyrrolo[1,2-a]pyrazin-2(1H)-yl)propanoic acid] |
| 1.1 | COc1ccc([C@H](CC(=O)O)N2CCn3cc(CCCc4ccc5c(n4)NCCC5)cc3C2=O)cn1 [Example 30, (S)-3-(6-Methoxypyridin-3-yl)-3-(1-oxo-7-(3-(5,6,7,8-tetrahydro-1,8-naphthyridin-2-yl)propyl)-3,4-dihydropyrrolo[1,2-a]pyrazin-2(1H)-yl)propanoic acid] |
| 4.8 | O=C(O)C[C@@H](c1ccc(O)c(F)c1)N1CCn2cc(CCc3ccc4c(n3)NCCC4)cc2C1=O [Example 27, (S)-3-(3-Fluoro-4-hydroxyphenyl)-3-(1-oxo-7-(2-(5,6,7,8-tetrahydro-1,8-naphthyridin-2-yl)ethyl)-3,4-dihydropyrrolo[1,2-a]pyrazin-2(1H)-yl)propanoic acid] |
| 12 | COc1ccc([C@H](CC(=O)O)N2CCn3cc(CCCCc4ccc5c(n4)NCCC5)cc3C2=O)cc1F [Example 31, (S)-3-(3-Fluoro-4-methoxyphenyl)-3-(1-oxo-7-(4-(5,6,7,8-tetrahydro-1,8-naphthyridin-2-yl)butyl)-3,4-dihydropyrrolo[1,2-a]pyrazin-2(1H)-yl)propanoic acid] |
| 340 | COc1ccc([C@H](CC(=O)O)N2CCn3cc(-c4ccc5c(n4)NCCC5)cc3C2=O)cc1F [Example 28, (S)-3-(3-Fluoro-4-methoxyphenyl)-3-(1-oxo-7-(5,6,7,8-tetrahydro-1,8-naphthyridin-2-yl)-3,4-dihydropyrrolo[1,2-a]pyrazin-2(1H)-yl)propanoic acid] |
| 1.6 | O=C(O)C[C@@H](c1ccc(OCC2CC2)nc1)N1CCn2cc(CCc3ccc4c(n3)NCCC4)cc2C1=O [Example 24, (S)-3-(6-(Cyclopropylmethoxy)pyridin-3-yl)-3-(1-oxo-7-(2-(5,6,7,8-tetrahydro-1,8-naphthyridin-2-yl)ethyl)-3,4-dihydropyrrolo[1,2-a]pyrazin-2(1H)-yl)propanoic acid] |
| 0.73 | COc1ccc([C@H](CC(=O)O)N2CCn3cc(Cc4ccc5c(n4)NCCC5)cc3C2=O)cc1F [Example 29, (S)-3-(3-Fluoro-4-methoxyphenyl)-3-(1-oxo-7-((5,6,7,8-tetrahydro-1,8-naphthyridin-2-yl)methyl)-3,4-dihydropyrrolo[1,2-a]pyrazin-2(1H)-yl)propanoic acid] |
| 53 | COc1ccc([C@H](CC(=O)O)N2CCn3c(cc(CCc4ccc5c(n4)NCCC5)c3I)C2=O)cc1F [Example 26, (S)-3-(3-Fluoro-4-methoxyphenyl)-3-(6-iodo-1-oxo-7-(2-(5,6,7,8-tetrahydro-1,8-naphthyridin-2-yl)ethyl)-3,4-dihydropyrrolo[1,2-a]pyrazin-2(1H)-yl)propanoic acid] |
| 5.6 | Cc1ncc([C@H](CC(=O)O)N2CCn3cc(CCCc4ccc5c(n4)NCCC5)cc3C2=O)cn1 [Example 21] |
